Measurements published in the METLIN SMRT retention time set (Domingo-Almenara et al. 2019).

Assay: gradient 5% acetonitrile 3 min, to 50% in 2 min, to 85% in 15 min, held 3 min, 100 µL/min
Conditions: column: Zorbax Extend-C18 2.1 x 50 mm; eluents: water / acetonitrile, 0.1% formic acid
Outline: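 Pure standards were run in mixtures of ~100 molecules by HPLC coupled to a quadrupole time-of-flight mass spectrometer. The column was a Zorbax Extend-C18 (2.1 × 50 mm, 1.8 μm) at 100 μL/min, with water and acetonitrile each containing 0.1% formic acid, in positive and negative ionization mode. Dead and dwell volumes were 40 μL and 900 μL. Retention time was taken from computationally picked adduct peaks, each manually inspected, with data collected over 3 months.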

SMILES | RP-LC retention time
O=C1COc2ccc(-c3csc(NC(=O)c4ccco4)n3)cc2N1 | 741 s
O=C(NCC1CCCO1)c1n[nH]c2c1CCCCCC2 (centres undefined) | 724 s
CC(C)N1CCN(Cc2nc(-c3ccc(N(C)Cc4ccccc4)nc3)no2)CC1 | 661 s
O=C(Nc1ccc(-c2cn3c(C(=O)N4CCCC4)csc3n2)cc1)c1ccccc1 | 780 s
N#CCCN1CCN(c2cc(C(=O)O)c3cc(NC(=O)c4cccc(Cl)c4)ccc3n2)CC1 | 614 s
Cc1oc(-c2ccccc2)nc1Cc1noc(COc2ccc(F)cc2)n1 | 1100 s
O=C(NC1CC1)C1CCN(c2nc3ccc(-c4ccccc4)nc3s2)CC1 | 865 s
Cc1nc(-c2noc(-c3ccccc3)n2)cn1CC(=O)Nc1ccc2c(c1)OCO2 | 803 s
CCc1noc(NC(C)=O)c1-c1ccc(C)c(S(=O)(=O)Nc2ccc(F)c(Cl)c2)c1 | 875 s
CC1=C(C(=O)OC(C)C)C(c2cc3c(cc2Br)OCO3)NC(=O)N1 (centres undefined) | 748 s
Cc1cc(Nc2ccc(C(=O)NC3CC3)cc2)n2nc(-c3cccnc3)nc2n1 | 612 s
COC(=O)COC(=O)c1cn(-c2ccc(C)cc2)c(=O)c2ccccc12 | 986 s
Cc1cnc(-c2ccccc2)n1CCNS(=O)(=O)c1ccc2c(c1)CCC2 | 689 s
CC(C)OCCCNC(=O)C1CCCN(c2nc3ccccc3n(Cc3ccccc3)c2=O)C1 (centres undefined) | 1070 s
Cc1ccc(CN2C[C@@H]3C(=O)N(CCc4ccccc4)C(=O)[C@@H]3C2)cc1 | 760 s
O=C(Nc1cccc(F)c1)c1csc(-c2ccc(N3CCCC3)nc2)n1 | 772 s
Cc1sc(-c2cc(C(F)(F)F)on2)cc1S(=O)(=O)NC1CC1 | 1040 s
Cc1ccc2c(c1)N(Cc1nc(-c3ccc(C)c(C)c3)no1)C(=O)CO2 | 1160 s
CCc1cccc(-n2nnc(C(=O)N3CCC4(CC3)OCCO4)c2-c2ccncc2)c1 | 744 s
Cc1ccccc1Nc1c(-c2cccc(Br)c2)nc2ccc(Cl)cn12 | 1100 s
COc1cc(CNC(=O)C2=Cc3ccccc3OC2)cc(OC)c1OC | 835 s
COc1ccc(-c2cc(C(=O)O)c3ccccc3n2)cc1 | 645 s
CC(C)(C)C(O)CCNC(=O)NCc1ccc(Cl)cc1 (centres undefined) | 739 s
Cc1nc(-c2nnn(Cc3ccccc3)c2C)no1 | 836 s
Cc1cccc(N2CCN(c3cc(C(=O)O)c4cc(NC(=O)C(C)(C)C)ccc4n3)CC2)c1C | 774 s
O=C1CC(c2nc(-c3ccc(C(F)(F)F)cc3)no2)CN1c1ccc2c(c1)OCO2 (centres undefined) | 1070 s
O=C1CN(Cc2ccco2)C2CS(=O)(=O)CC2N1c1ccc(Cl)cc1 (centres undefined) | 714 s
CC(/C=C/c1cccc(Oc2ccc(F)cc2)c1)N(O)C(N)=O (centres undefined) | 927 s

SMILES | RP-LC retention time
CCC(C)(C)NS(=O)(=O)c1cccc(-c2nc(-c3ccccc3)no2)c1 | 1230 s
COc1ccc(S(=O)(=O)NC2CCN(C(=O)CCc3c[nH]c4ccccc34)CC2)cc1 | 788 s
COc1cc(C)c2c(c1C=O)Oc1c(c(C)c(O)c3c1C(O)OC3=O)OC2=O (centres undefined) | 840 s
Cn1c(=O)c(C(=O)NCc2ccccc2)nc2cccnc21 | 735 s
Brc1cccc(-c2noc(Cn3ccnc3)n2)c1 | 650 s
COc1ccc(-n2ccc(=O)c(-c3nc(-c4ccc(OC)c(OC)c4)no3)n2)cc1 | 788 s
COCCNC(=O)c1ccc(CS(=O)Cc2ccccc2Cl)o1 (centres undefined) | 664 s
O=C(COc1ccc(Cl)cc1)NCc1nnc(SCC(=O)Nc2nccs2)o1 | 703 s
CC(C)(C)C(O)CCNC(=O)C1(c2ccc(F)cc2)CC1 (centres undefined) | 823 s
Cc1c(Cl)cccc1NC(=O)CCc1nc(CSc2nnc(-c3ccccc3)o2)no1 | 949 s
Clc1ccc(-c2nc3cnccn3c2Nc2cccc(Cl)c2)cc1 | 1060 s
O=C(CN1C(=O)C(C(=O)N2CCCC2)Sc2ccccc21)NCc1ccc(Cl)cc1 (centres undefined) | 948 s
O=C(NCc1csc(C2CCN(C(=O)COc3ccccc3)CC2)n1)C1CC1 | 701 s
CC(C)N1C(=O)c2cccnc2Sc2cc(NC(=O)c3cccs3)ccc21 | 837 s
CCc1nc(N)n(CC(=O)Nc2ccc(F)cc2)c(=O)c1C | 634 s
Nc1nnc(CCS(=O)(=O)c2ccccc2)o1 | 565 s
CCCCN1C(=O)c2cc(S(=O)(=O)N3CCc4ccccc43)ccc2Oc2cccnc21 | 1260 s
CCOc1ccc(NC(=O)NC2CCN(c3cc(C)cc(C)c3)C2=O)cc1 (centres undefined) | 886 s
Cc1nn(CCCC(=O)Nc2cccc(F)c2)c(=O)c2nn(-c3ccccc3)c(C)c12 | 709 s
Fc1ccc(-c2nnc(Cc3nc(-c4ccccc4Cl)no3)o2)cc1 | 995 s
Cc1ccccc1-c1noc(Cn2cnc3c(cnn3-c3cc(Cl)ccc3C)c2=O)n1 | 1100 s
Cc1cc(C)cc(NC(=O)Cc2nnc(-c3cnccn3)o2)c1 | 729 s
COc1ccc(-c2ncccc2CNC(=O)C2CC2)cc1 | 569 s
Cc1ccc(CNC(=O)C2CCCN(c3nnc4ccccn34)C2)cc1 (centres undefined) | 705 s
Cc1noc(C)c1CC(=O)N1C[C@H]2C[C@H](C1)[C@H]1CCCC(=O)N1C2 | 599 s
CCN1CCN(c2ccc(NC(=O)c3ccc(C)c(N4CCCC4=O)c3)cn2)C1=O | 600 s
COC(=O)c1cc(OCC(=O)NCc2ccc3c(c2)OCO3)c2cc(Cl)ccc2n1 | 827 s

Further lines, results first:

RP-LC retention time | SMILES
871 s | COc1ccc(NC(=O)C2CCN(S(=O)(=O)c3cc(-c4noc(C)n4)cs3)CC2)cc1
1050 s | Cc1nc(-c2csc(S(=O)(=O)N3CCCC(C(=O)Nc4ccc(Cl)cc4F)C3)c2)no1 (centres undefined)
1310 s | Cc1ccc(-c2nc(C3CCN(S(=O)(=O)c4ccc5c(c4)CCC5)CC3)no2)cc1
673 s | CC1CCCN(CC2CCN(S(=O)(=O)c3ccc(F)cc3Cl)CC2)C1 (centres undefined)
597 s | Cc1ccc(NC(=O)C2CCN(S(=O)(=O)c3cn(C(C)C)cn3)CC2)cc1N(C)C
658 s | CN(C)CC1(O)CCC2(CCN(Cc3ccc(Cl)c(F)c3)CC2)CC1
676 s | O=C(Nc1ccc2c(c1)OCO2)C1CCN(c2cc(N3CCSCC3)ncn2)CC1
845 s | CCOc1ccc(NC(=O)Cn2c(=O)nc(N3CCC(C)CC3)c3ccccc32)cc1
1010 s | Cc1sc(-c2noc(C3CCC3)n2)cc1S(=O)(=O)N1CCC(C(=O)NCc2ccco2)CC1
821 s | CCCN(CC1CCOC1)C(=O)c1cc(F)ccc1Cl (centres undefined)
547 s | O=C(C1CCCN1c1nnc(N2CCCC2=O)s1)N1CCN(c2ccccn2)CC1 (centres undefined)
708 s | Cc1cc(C)cc(S(=O)(=O)N2CCC(CN3CCCCCC3)CC2)c1
594 s | O=C(NC1CCc2nnc(C3CC3)n2CC1)c1ccsc1 (centres undefined)
645 s | CS(=O)(=O)N1CC(n2cc(C(=O)NCC3CC3)nn2)C1
667 s | COc1ccc(NC(=O)C2CCCN(c3nnc4c(Cl)cccn34)C2)cc1OC (centres undefined)
758 s | CC(C)(C)CC(=O)N1CCCC(CCc2nnc(C3CCOCC3)o2)C1 (centres undefined)
838 s | CCC1Oc2ccc(S(=O)(=O)N3CCC(C(=O)NC4CCCCC4)CC3)cc2NC1=O (centres undefined)

RP-LC retention time | SMILES
797 s | Cc1cc(N2CCN(S(=O)(=O)c3ccc(F)cc3)CC2)nc(NC2CCCCC2)n1
1150 s | Cc1cccc(C(=O)NCC2CCCN(S(=O)(=O)c3ccc4c(c3)CCCC4)C2)c1 (centres undefined)
657 s | Cc1ccn2c(NC(=O)C3CCCCC3)c(-c3ccc(F)cc3)nc2c1
831 s | COc1ccc(C2Cn3cnc(C(=O)N4CCC(C(=O)NCCC5=CCCCC5)CC4)c3CO2)cc1 (centres undefined)
617 s | O=C(CSc1ccc(N2CCCC(C(=O)NC3CC3)C2)nn1)Nc1c(F)cccc1F (centres undefined)
649 s | Cc1cnc(C(=O)N2CCCCCCNC(=O)[C@@H]3CCC[C@@H]32)cn1
1160 s | Cc1csc(-c2cc(S(=O)(=O)N3CCc4ccccc4C3)c(C)s2)n1
1010 s | CCOC(=O)N1CCN(c2nc(F)c(F)c(S(=O)(=O)CCNc3ccccc3)c2F)CC1
1140 s | COc1ccc(S(=O)(=O)N2CCC(c3noc(-c4ccccc4)n3)CC2)cc1Cl
731 s | Cc1noc(C)c1CNC(=O)c1ccc(F)cc1Cl
1040 s | CC1CCCN(C(=O)c2cn(-c3cc(-c4nc(C(C)(C)C)no4)ccn3)cn2)C1 (centres undefined)
917 s | O=C(Nc1ccc(N2CCN(C3CCCC3)C2=O)nc1)c1cc(F)cc(F)c1
642 s | O=S(=O)(c1ccc(-c2nnc(C3CC3)o2)o1)N1CCN(C2CCCCC2)CC1
845 s | CC1=C(c2ccc(F)cc2)S(=O)(=O)N=C1N1CCCN(C(=O)NC2CCCCC2)CC1
802 s | Cc1cc(C2CCCN2C(=O)Nc2ccccc2Cl)no1 (centres undefined)
691 s | CN(C)CCNC(=O)C1CCN(c2nc3ccc(-c4cccc(F)c4)nc3s2)CC1
611 s | Cc1ccc2oc(C(=O)N3CCC(CCN4CCCCC4)CC3)cc(=O)c2c1
